Assay results taken from publication PMC4774911, “Biochemical Screening of Five Protein Kinases from Plasmodium falciparum against 14,000 Cell-Active Compounds” (PLoS ONE, 2016).
Values joined by “and” are separate entries in the source; they are usually repeats but may differ in a detail not shown here. Equal values may be shown once.

What was measured:
Assay in all cases: biochemical
Set-up in all cases: endogenous in cells; host or cells: K562 cell extract; species or system K562 (extract); replicate k of n = 2 (each experiment ID is one independent experiment; two experiment IDs per compound)
Details in all cases: read-out: KDapp
[1] = molecular target: T1, ITK (Homo sapiens, UniProt Q08881)
T1 sequence (Q08881 1-620): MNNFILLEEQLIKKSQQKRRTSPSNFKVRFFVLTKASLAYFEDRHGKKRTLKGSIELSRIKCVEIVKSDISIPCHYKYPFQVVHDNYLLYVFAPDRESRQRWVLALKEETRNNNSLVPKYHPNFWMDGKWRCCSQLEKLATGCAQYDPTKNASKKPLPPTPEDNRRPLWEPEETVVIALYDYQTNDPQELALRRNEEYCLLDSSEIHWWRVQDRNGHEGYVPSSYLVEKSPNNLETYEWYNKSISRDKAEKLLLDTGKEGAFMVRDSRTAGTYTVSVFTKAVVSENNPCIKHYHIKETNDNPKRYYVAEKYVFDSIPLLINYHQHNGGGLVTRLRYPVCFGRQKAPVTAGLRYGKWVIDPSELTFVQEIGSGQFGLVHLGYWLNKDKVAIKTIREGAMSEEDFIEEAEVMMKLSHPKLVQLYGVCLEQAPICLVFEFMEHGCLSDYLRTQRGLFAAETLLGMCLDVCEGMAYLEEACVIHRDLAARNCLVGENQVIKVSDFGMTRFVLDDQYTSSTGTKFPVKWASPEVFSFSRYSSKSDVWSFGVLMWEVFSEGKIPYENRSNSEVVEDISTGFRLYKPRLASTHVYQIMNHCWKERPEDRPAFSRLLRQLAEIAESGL

[2] = molecular target: T2, NEK2 (Homo sapiens, UniProt P51955)
T2 sequence (P51955 1-445): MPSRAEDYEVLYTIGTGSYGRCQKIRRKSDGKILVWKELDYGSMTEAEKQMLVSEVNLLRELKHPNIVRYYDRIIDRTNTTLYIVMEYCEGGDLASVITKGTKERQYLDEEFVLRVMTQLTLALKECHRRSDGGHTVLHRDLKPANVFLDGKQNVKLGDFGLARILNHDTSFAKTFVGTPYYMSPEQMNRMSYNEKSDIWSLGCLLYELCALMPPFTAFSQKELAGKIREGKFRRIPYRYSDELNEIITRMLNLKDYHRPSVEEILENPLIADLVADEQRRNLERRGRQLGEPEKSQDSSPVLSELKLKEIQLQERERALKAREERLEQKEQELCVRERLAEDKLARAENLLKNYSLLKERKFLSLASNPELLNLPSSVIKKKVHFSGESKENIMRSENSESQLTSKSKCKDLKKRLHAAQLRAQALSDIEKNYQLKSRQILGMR

[3] = molecular target: SLK (Homo sapiens, UniProt Q9H2G2)
[4] = molecular target: CSK (Homo sapiens, UniProt P41240)
[5] = molecular target: MAPK7 (Homo sapiens, UniProt Q13164)
[6] = molecular target: PRKCD (Homo sapiens, UniProt Q05655)
[7] = molecular target: RIPK2 (Homo sapiens, UniProt O43353)
[8] = molecular target: YES1 (Homo sapiens, UniProt P07947)
Chain of YES1 (P07947 whole entry): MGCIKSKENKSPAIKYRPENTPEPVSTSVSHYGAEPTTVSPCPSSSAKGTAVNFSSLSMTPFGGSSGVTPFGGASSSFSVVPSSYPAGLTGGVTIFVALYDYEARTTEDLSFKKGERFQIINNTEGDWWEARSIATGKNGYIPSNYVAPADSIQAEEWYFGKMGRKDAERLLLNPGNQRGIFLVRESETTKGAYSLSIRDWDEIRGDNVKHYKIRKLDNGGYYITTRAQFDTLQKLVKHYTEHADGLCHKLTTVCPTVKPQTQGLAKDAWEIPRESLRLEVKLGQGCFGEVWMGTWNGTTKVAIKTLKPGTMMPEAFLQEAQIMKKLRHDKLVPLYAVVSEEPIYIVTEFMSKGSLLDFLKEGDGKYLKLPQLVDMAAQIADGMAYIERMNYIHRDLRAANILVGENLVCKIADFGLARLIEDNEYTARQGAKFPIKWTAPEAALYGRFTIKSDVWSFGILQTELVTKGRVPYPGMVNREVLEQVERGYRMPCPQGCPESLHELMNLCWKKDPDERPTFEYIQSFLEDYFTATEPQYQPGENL

Chain of SLK (Q9H2G2 whole entry): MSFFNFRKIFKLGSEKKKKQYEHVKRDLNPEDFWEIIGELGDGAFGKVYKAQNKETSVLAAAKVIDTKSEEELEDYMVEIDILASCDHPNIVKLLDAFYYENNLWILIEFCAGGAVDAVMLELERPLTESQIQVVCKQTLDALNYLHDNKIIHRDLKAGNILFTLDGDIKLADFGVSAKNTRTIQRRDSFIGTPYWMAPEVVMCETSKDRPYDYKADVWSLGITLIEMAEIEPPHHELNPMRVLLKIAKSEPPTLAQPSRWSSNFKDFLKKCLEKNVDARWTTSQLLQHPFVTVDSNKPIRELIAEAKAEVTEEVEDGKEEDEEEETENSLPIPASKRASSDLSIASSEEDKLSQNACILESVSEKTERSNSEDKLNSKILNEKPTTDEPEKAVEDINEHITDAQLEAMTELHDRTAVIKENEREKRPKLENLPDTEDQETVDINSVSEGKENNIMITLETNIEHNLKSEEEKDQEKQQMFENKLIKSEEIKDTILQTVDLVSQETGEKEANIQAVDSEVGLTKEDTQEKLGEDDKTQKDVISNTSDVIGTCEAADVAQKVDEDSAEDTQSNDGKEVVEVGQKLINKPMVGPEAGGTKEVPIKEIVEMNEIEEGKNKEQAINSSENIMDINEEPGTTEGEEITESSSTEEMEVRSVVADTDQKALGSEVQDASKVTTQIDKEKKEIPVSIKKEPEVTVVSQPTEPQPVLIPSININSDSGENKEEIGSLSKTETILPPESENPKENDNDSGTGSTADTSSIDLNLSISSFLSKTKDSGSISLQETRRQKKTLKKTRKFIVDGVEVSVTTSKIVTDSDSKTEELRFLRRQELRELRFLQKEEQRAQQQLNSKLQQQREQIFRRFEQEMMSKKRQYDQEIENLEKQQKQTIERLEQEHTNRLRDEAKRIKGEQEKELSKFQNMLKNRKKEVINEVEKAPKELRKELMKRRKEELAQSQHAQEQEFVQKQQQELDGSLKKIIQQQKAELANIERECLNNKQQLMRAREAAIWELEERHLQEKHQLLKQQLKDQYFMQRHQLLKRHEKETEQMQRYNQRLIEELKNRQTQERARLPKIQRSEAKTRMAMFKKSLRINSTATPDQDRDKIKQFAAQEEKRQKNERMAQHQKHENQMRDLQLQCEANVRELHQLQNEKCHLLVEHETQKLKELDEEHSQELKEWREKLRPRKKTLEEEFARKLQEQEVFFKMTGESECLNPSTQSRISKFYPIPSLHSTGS
Chain of RIPK2 (O43353 whole entry): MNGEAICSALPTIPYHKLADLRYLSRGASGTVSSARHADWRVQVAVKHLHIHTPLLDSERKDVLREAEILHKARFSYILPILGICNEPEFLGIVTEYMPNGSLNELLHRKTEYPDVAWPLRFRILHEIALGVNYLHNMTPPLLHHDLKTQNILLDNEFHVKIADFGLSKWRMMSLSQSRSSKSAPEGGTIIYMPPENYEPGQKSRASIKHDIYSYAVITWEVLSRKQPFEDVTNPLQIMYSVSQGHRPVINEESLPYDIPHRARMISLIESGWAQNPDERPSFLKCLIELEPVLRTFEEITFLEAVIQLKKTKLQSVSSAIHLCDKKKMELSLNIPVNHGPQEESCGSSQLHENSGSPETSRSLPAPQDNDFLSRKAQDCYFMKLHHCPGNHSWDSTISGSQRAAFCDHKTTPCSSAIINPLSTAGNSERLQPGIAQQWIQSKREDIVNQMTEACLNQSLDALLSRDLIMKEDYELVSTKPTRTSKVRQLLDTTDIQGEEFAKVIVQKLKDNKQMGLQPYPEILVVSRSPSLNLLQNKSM
Chain of MAPK7 (Q13164 whole entry): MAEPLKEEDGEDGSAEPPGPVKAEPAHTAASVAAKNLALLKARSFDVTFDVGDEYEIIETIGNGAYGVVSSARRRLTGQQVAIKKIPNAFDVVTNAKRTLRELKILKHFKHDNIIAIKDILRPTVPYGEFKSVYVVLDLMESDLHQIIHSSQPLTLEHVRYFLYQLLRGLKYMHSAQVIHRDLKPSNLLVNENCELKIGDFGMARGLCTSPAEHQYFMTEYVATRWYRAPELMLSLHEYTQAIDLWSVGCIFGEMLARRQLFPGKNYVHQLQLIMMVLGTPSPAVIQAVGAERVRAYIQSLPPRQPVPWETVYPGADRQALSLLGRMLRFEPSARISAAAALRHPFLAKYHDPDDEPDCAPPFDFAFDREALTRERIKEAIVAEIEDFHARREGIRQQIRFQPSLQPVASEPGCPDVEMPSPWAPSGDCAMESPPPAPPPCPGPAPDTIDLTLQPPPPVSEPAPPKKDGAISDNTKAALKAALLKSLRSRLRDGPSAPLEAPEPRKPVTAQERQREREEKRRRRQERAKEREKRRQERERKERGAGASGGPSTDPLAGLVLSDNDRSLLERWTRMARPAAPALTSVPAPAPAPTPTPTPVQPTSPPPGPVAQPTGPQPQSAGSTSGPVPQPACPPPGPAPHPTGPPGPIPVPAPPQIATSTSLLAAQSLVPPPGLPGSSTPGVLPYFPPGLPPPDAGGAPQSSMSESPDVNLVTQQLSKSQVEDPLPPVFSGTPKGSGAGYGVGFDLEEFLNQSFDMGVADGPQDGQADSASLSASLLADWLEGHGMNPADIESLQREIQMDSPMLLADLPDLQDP
Chain of CSK (P41240 whole entry): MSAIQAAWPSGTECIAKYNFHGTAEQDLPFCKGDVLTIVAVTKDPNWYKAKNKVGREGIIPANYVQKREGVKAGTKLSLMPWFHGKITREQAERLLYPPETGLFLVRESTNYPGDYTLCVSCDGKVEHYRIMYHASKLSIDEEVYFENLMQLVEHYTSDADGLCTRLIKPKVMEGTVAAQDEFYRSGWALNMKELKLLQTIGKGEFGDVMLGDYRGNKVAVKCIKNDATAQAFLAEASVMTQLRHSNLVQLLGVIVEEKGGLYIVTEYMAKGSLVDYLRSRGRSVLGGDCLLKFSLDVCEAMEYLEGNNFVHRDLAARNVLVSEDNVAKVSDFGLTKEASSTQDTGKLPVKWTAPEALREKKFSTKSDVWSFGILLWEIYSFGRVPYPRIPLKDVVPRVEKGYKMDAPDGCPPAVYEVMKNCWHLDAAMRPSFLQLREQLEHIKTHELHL
Chain of PRKCD (Q05655 whole entry): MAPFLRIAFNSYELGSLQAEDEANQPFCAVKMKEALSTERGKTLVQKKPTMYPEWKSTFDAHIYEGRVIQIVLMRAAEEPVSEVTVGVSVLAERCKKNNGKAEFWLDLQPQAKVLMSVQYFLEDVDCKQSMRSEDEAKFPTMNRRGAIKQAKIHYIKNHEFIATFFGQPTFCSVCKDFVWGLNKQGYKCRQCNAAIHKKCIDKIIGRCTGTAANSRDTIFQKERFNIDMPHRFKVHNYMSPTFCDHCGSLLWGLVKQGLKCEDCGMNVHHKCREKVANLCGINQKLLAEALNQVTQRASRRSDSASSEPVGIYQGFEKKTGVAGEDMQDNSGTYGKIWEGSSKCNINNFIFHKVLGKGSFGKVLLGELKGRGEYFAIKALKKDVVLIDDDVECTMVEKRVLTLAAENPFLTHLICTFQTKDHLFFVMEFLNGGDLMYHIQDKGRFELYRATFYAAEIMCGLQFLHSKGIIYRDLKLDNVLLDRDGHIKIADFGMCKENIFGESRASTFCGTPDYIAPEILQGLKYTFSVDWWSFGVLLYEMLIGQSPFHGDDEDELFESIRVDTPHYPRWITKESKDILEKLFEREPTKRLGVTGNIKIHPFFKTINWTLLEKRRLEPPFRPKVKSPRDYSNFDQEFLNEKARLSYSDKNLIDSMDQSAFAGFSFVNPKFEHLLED

For `CN(C)CC(O)COc1ccc(Nc2ncc([N+](=O)[O-])c(Nc3ccccc3O)n2)cc1.O=C(O)C(F)(F)F` (stereo not shown) [TCMDC-141399], the Kd [1] was 0.47 µM, the Kd [2] was 3.06 µM and 1.98 µM and the Kd [3] was 0.528 µM and 0.593 µM.
In the case of `Cl.NCC1(c2nc(-c3ccc(Cl)c(O)c3)c(-c3ccncc3)[nH]2)CCCCC1` [TCMDC-141154], the Kd [4] is reported as 2.65 µM, the Kd [5] is reported as 0.549 µM and 0.949 µM and the Kd [6] is reported as 0.806 µM. For the same compound, the Kd [7] was 0.0145 µM and 0.0175 µM and the Kd [8] was 1.49 µM and 2.6 µM.
With `CN1CCN(c2ccc(Nc3ncc(C#N)c(Nc4ccccc4C(N)=O)n3)cc2)CC1.Cl` [TCMDC-134116] the Kd [4] was 2.47 µM, the Kd [1] was 0.0387 µM and the Kd [5] was 0.14 µM and 0.19 µM. For the same compound, the Kd [2] was 0.269 µM and 0.118 µM, the Kd [6] was 0.685 µM and the Kd [7] was 0.273 µM. For the same compound, the Kd [3] was 0.0285 µM and 0.0338 µM and the Kd [8] was 0.0406 µM and 0.0507 µM.
